Where two headings read alike, the source gives them in different places.
Columns and labels:
Drosophila Grd and LCCH3 [1] = molecular target: T1, Drosophila Grd and LCCH3 (Drosophila melanogaster, UniProt Q08832+Q24352); test: [3H] muscimol radioligand binding assay, membranes of High Five cells co-infected with vBP8-Grd/vBP8-LCCH3
T1 construct: made in house; host or cells: High Five (Trichoplusia ni) cells, co-infected with vBP8-Grd and vBP8-LCCH3
T1 sequence (Q24352 59-686): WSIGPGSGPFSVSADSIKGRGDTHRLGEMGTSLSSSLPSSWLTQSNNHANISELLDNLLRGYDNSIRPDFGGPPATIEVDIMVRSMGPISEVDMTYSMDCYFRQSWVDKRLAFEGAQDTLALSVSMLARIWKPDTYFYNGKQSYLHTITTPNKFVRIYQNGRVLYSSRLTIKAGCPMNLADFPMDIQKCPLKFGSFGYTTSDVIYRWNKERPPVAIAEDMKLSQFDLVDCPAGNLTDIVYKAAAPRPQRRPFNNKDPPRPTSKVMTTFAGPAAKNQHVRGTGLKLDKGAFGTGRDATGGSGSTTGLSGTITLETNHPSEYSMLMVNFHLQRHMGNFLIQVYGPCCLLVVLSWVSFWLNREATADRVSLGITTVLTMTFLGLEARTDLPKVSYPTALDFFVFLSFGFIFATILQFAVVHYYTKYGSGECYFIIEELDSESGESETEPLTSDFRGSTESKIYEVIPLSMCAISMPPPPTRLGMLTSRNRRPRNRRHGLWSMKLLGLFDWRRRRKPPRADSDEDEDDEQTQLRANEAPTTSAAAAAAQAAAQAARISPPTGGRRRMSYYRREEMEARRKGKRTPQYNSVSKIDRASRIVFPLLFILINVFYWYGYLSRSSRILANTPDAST
T1 sequence (Q08832 21-496): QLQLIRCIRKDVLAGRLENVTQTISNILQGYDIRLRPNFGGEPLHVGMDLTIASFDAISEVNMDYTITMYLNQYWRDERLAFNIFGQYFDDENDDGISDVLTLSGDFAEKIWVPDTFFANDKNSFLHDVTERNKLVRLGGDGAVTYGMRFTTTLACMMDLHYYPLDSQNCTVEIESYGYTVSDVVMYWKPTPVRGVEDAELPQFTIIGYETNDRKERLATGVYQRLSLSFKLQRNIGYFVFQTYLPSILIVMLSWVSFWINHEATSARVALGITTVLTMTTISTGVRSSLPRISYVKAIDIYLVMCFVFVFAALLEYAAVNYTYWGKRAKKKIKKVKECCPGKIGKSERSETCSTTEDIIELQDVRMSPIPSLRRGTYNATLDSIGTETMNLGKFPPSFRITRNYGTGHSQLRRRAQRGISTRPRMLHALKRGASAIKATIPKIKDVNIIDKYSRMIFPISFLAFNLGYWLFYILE
Experimental: (§1) High Five™ cells (derived from the cabbage loper, Trichoplusia ni, Invitrogen Corp.) were infected with vBP8-Rdl, vBP8-LCCH3, or vBP8-Grd, either singly or in various combinations. Cells were harvested at 3 days post-infection in tubes of approximately 6×10^7 cells per tube, the cells were pelleted by centrifugation, the supernatants discarded, and the pellets immediately stored at -80° C. This amount of tissue is sufficient for one 96-well microtiter plate. Membranes were prepared by first thawing and then resuspending the cell pellet in 25 mL of 10 mM phosphate buffer pH 7.4. The cells were gently homogenized with five strokes in a glass/Teflon homogenizer and the membranes pelleted by centrifugation at 120,000 g for 30 minutes. The membrane pellet was resuspended in 25 mL of 10 mM phosphate buffer pH 7.4, re-pelleted as above, and the pellet finally resuspended in 3 mL of buffer. The protein concentration was determined by the Bradford method (Bradford (1976) Anal. Biochem. 79:248) and then adjusted to 625 μg of protein per mL of 10 mM PBS, pH 7.4.
The radioligand binding assays were composed of 200 μL membrane preparation (containing 125 μg protein), 100 μL of [^3 H] muscimol (to give a final concentration of 5 nM), 20 μL of unlabeled test compound, buffer or unlabeled muscimol, and 680 μL of 10 mM PBS, pH 7.4. […] The reactions were incubated for 90 minutes at 4° C., and then terminated by filtration through Whatman GF/B glass fiber filters. Filters were washed with two 5 mL aliquots of cold buffer, and the radioactivity remaining on the filters was determined by liquid scintillation. Multiple assays were performed to test numerous compounds.

[2] = system: insect cells infected with either vBP8-Grd, vBP8-LCCH3, or co-infected with vBP8-Grd and vBP8-LCCH3; test: Whole cell voltage clamp recordings of infected insect cells; assay type: cell-based, Drosophila; conditions: GABA applications of up to 1 mM, 30 to 36 hours post-infection, any of the three infected cell types
Experimental: Insect cells infected with either vBP8-Grd, vBP8-LCCH3, or co-infected with vBP8-Grd and vBP8-LCCH3 were analyzed for the expression and assembly of functional GABA-gated chloride channels. Whole cell voltage clamp recordings were made at between 30 and 36 hours post-infection. […] However, no specific [^3 H]EBOB binding was detected in cells infected with any combination of virus.

Rat brain = test: [3H] muscimol binding, rat brain (previous assays of the inventors)
Source text: Data from fly heads and rat brains were obtained as described in Table 2.

Drosophila Rdl = molecular target: T2, Drosophila Rdl (Drosophila melanogaster, UniProt P25123); test: [3H] muscimol radioligand binding assay, membranes of High Five cells infected with vBP8-Rdl
T2 construct: excised the full-length cDNA encoding Rdl; made in house; host or cells: High Five (Trichoplusia ni) cells, baculovirus vBP8-Rdl
T2 sequence (P25123 45-606): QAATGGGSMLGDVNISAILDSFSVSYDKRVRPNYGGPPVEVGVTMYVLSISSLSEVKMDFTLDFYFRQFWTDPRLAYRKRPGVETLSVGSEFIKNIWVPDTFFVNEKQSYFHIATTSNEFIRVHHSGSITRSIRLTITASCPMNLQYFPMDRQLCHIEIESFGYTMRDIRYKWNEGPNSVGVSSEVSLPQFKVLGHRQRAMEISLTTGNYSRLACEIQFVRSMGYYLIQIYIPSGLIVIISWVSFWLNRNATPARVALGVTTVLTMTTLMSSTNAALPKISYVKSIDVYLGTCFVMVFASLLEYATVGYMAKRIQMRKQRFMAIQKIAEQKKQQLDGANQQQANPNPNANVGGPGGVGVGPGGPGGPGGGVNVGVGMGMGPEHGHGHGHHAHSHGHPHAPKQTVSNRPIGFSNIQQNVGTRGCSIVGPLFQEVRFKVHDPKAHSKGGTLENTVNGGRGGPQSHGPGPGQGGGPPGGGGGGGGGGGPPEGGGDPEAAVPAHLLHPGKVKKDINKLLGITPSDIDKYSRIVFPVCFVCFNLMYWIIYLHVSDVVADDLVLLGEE
Experimental: as §1
(§2) The reactions were incubated for 90 minutes at 4° C., and then terminated by filtration through Whatman GF/B glass fiber filters. Filters were washed with two 5 mL aliquots of cold buffer, and the radioactivity remaining on the filters was determined by liquid scintillation. Multiple assays were performed to test numerous compounds.

Housefly heads = conditions: from Lunt et al. (1985), cited from earlier work; for IC50: half-maximal displacement of [3H] muscimol, read-out: IC50, Fly Heads
[3] = molecular target: T3, Drosophila Rdl, Grd and LCCH3 (Drosophila melanogaster, UniProt P25123+Q08832+Q24352); test: [3H] muscimol radioligand binding assay, membranes of High Five cells infected with vBP8-Grd/vBP8-LCCH3/vBP8-Rdl
T3 construct: excised the full-length cDNA encoding Rdl; made in house; host or cells: High Five (Trichoplusia ni) cells, co-infected with vBP8-Grd, vBP8-LCCH3 and vBP8-Rdl
T3 sequence (P25123 45-606): T2 sequence (P25123 45-606)
T3 sequence (Q24352 59-686): T1 sequence (Q24352 59-686)
T3 sequence (Q08832 21-496): T1 sequence (Q08832 21-496)
Experimental: as §1, §2

Drosophila Grd and LCCH3 [4] = molecular target: T1, Drosophila Grd and LCCH3; test: [3H] muscimol radioligand binding assay, membranes of High Five cells co-infected with vBP8-Grd/vBP8-LCCH3; remark: listed apart in the source
Drosophila Grd = molecular target: T4, Drosophila Grd (Drosophila melanogaster, UniProt Q24352); test: [3H] muscimol radioligand binding assay, membranes of High Five cells infected with vBP8-Grd; conditions: High Five cell membranes
T4 construct: made in house; host or cells: High Five (Trichoplusia ni) cells, baculovirus vBP8-Grd
T4 sequence (Q24352 59-686): T1 sequence (Q24352 59-686)
Experimental: as §1, with “The membrane pellet was resuspended in 25 mL of 10 mM phosphate buffer pH 7.4, re-pelleted as above, and the pellet finally resuspended in 3 mL of buffer.” left out
(§3) The radioligand binding assays were composed of 200 μL membrane preparation (containing 125 μg protein), 100 μL of [^3 H] muscimol (to give a final concentration of 5 nM), 20 μL of unlabeled test compound, buffer or unlabeled muscimol, and 680 μL of 10 mM PBS, pH 7.4. […] Filters were washed with two 5 mL aliquots of cold buffer, and the radioactivity remaining on the filters was determined by liquid scintillation. […]

Human α1 and rat β2 = molecular target: T5, Human α1 and rat β2 (UniProt P14867+P63138); test: [3H] muscimol radioligand binding assay, positive control receptor expressed in insect cells; conditions: [3H] muscimol 5 nM, insect cell membranes
T5 construct: made in house; host or cells: insect cells, baculoviruses vEV-humα1 and vEV-ratβ2

Drosophila LCCH3 = molecular target: T6, Drosophila LCCH3 (Drosophila melanogaster, UniProt Q08832); test: [3H] muscimol radioligand binding assay, membranes of High Five cells infected with vBP8-LCCH3; conditions: High Five cell membranes
T6 construct: made in house; host or cells: High Five (Trichoplusia ni) cells, baculovirus vBP8-LCCH3
T6 sequence (Q08832 21-496): T1 sequence (Q08832 21-496)
Experimental: as §1, with “The membrane pellet was resuspended in 25 mL of 10 mM phosphate buffer pH 7.4, re-pelleted as above, and the pellet finally resuspended in 3 mL of buffer.” left out
as §3

[5] = half-maximal displacement of [3H] muscimol, read-out: IC50, Grd/LCCH3
[6] = half-maximal displacement of [3H] muscimol, previous assays by the inventors
[7] = half-maximal displacement of [3H] muscimol, read-out: IC50, Rdl
[8] = [3H] muscimol saturation binding, High Five cell membranes
[9] = [3H] muscimol 5 nM, High Five cell membranes, non-specific = 10 μM GABA
[10] = [3H] muscimol 5 nM, non-specific = 10 μM GABA
[11] = [3H] muscimol saturation binding

T5 sequence (P14867 28-456): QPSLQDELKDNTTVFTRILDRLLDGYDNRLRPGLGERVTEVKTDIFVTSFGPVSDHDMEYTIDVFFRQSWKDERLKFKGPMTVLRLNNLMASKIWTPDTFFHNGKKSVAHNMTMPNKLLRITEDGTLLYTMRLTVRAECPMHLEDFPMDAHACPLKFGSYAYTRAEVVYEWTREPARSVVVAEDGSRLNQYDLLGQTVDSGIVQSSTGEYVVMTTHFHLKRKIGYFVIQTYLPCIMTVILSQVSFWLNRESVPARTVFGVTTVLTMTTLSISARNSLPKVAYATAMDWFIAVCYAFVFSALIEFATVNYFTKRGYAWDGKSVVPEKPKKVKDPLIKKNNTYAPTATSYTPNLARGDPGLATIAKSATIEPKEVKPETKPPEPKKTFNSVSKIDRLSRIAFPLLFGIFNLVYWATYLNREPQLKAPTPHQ
T5 sequence (P63138 25-474 limits assumed): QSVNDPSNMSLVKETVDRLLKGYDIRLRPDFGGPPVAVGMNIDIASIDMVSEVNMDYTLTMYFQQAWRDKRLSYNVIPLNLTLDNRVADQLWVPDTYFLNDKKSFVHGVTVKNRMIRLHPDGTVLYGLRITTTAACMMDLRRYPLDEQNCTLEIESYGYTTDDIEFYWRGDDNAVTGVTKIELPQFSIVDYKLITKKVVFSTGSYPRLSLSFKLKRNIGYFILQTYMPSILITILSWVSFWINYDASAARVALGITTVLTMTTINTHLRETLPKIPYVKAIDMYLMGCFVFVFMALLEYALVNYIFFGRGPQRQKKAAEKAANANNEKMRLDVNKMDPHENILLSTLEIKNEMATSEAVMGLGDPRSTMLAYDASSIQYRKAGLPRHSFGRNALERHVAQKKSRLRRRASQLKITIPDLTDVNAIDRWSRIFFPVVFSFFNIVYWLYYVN

NCCCC(=O)O [GABA, γ-aminobutyric acid]
IC50 (Drosophila Grd and LCCH3 [1]; [5]): 0.038 µM
Depolarization in whole cell voltage clamp [2]: Depolarization was not detected

O=C(O)C1=CCNCC1 [Isoguavacine]
IC50 (Drosophila Grd and LCCH3 [1]; [5]): 0.19 µM
IC50 (Rat brain; [6]): 0.289 µM
IC50 (Drosophila Rdl; [7]): 0.26 µM
IC50 (Housefly heads): 0.1 µM

CP(=O)(O)CCCN [SKF-97541]
IC50 (Drosophila Grd and LCCH3 [1]): > 1000 µM
IC50 (Rat brain; [6]): > 1000 µM
IC50 (Drosophila Rdl): > 1000 µM

NCCCCC(=O)O [5-amino-valeric acid]
IC50 (Drosophila Grd and LCCH3 [1]; [5]): 0.749 µM
IC50 (Rat brain; [6]): > 1000 µM
IC50 (Drosophila Rdl; [7]): 2.1 µM

COc1ccc2c(c1OC)C(=O)O[C@@H]2[C@H]1c2cc3c(cc2CCN1C)OCO3 [Hydrastine]
IC50 (Drosophila Grd and LCCH3 [1]): > 1000 µM
IC50 (Rat brain; [6]): 2.61 µM
IC50 (Drosophila Rdl): > 1000 µM

NCc1cc(=O)[nH]o1 [Muscimol]
IC50 (Drosophila Grd and LCCH3 [1]; [5]): 0.015 µM
IC50 (Rat brain; [6]): 0.043 µM
IC50 (Drosophila Rdl; [7]): 0.012 µM
IC50 ([3]; half-maximal displacement of [3H] muscimol): 0.023 µM
IC50 (Housefly heads): 0.03 µM

COc1ccc(-c2ccc(=N)n(CCCC(=O)O)n2)cc1 [Gabazine]
IC50 (Drosophila Grd and LCCH3 [1]; [5]): > 1000 µM
IC50 (Rat brain): 0.483 µM
IC50 (Drosophila Rdl; [7]): > 1000 µM

NC/C=C\C(=O)O [cis-4-amino-crotonic acid]
IC50 (Drosophila Grd and LCCH3 [1]; [5]): 1.62 µM
IC50 (Rat brain; [6]): > 1000 µM
IC50 (Drosophila Rdl; [7]): 2.91 µM

O=S(=O)(O)C1CCNCC1 [Piperidine-4-sulfonate]
IC50 (Drosophila Grd and LCCH3 [1]; [5]): > 1000 µM
IC50 (Drosophila Rdl; [7]): > 1000 µM

NCc1cc(O)no1 [[^3 H] muscimol]
maximum number of binding sites (Bmax) relative to vBP8-Rdl-infected cells (Drosophila Grd and LCCH3 [4]; Grd/LCCH3 co-infected versus Rdl-infected cells): 15 fold
Bmax (Drosophila Grd and LCCH3 [4]; High Five cell membranes): 1.85 pmol [3H] muscimol bound per m
Kd (Drosophila Grd and LCCH3 [4]; [8]): 0.012 µM
% Specific Binding (Drosophila Grd and LCCH3 [1]; [9]): 85%
specific binding of [3H]muscimol (Drosophila Grd and LCCH3 [1]; cells 3 days after co-infection with vBP8-Grd and vBP8-LCCH3): High levels of specific binding
% Specific Binding (Drosophila Grd; [10]): 10%
Kd (Drosophila Grd; [11]): > 10 µM
Kd (Rat brain; rat brain, previous assays by the inventors): 0.028 µM
% Specific Binding (Human α1 and rat β2): 80%
Bmax (Drosophila Rdl; High Five cell membranes): 0.11 pmol [3H] muscimol bound per m
% Specific Binding (Drosophila Rdl; [9]): 55%
Kd (Drosophila Rdl; [8]): 0.012 µM
Bmax ([3]; High Five cell membranes): 0.64 pmol [3H] muscimol bound per m
% Specific Binding [3, 9]: 60%
Kd [3, 8]: 0.038 µM
Kd (Housefly heads; housefly heads): 0.04 µM
% Specific Binding (Drosophila LCCH3; [10]): 10%
Kd (Drosophila LCCH3; [11]): > 10 µM

O=C(O)C1CCNCC1 [Isonipecotic acid]
IC50 (Drosophila Grd and LCCH3 [1]; [5]): 2.68 µM
IC50 (Rat brain; [6]): 1.43 µM
IC50 (Drosophila Rdl; [7]): 1.7 µM

CN1CCc2cc3c(cc2[C@H]1[C@@H]1OC(=O)c2c1ccc1c2OCO1)OCO3 [Bicuculline]
IC50 (Drosophila Grd and LCCH3 [1]): > 1000 µM
IC50 (Rat brain; [6]): 19 µM
IC50 (Drosophila Rdl): > 1000 µM

NCC(CC(=O)O)c1ccc(Cl)cc1 (stereo not shown) [Baclofen]
IC50 (Drosophila Grd and LCCH3 [1]; [5]): > 1000 µM
IC50 (Rat brain; [6]): > 1000 µM
IC50 (Drosophila Rdl; [7]): > 1000 µM
